Results taken from PMC8838982 (Bioorganic chemistry, 2021).
Several values for one entry are separate records, joined by “and”; a condition that tells them apart may be missing. Identical values can stand only once.

Assays:
Assay type in all cases: cell-based, influenza virus A/PR/8/34
[1] = system: PA-mutant R84L influenza virus polymerase
[2] = system: PA-mutant H41A influenza virus polymerase
[3] = system: PA-mutant I120T influenza virus polymerase
[4] = system: PA-mutant V122T influenza virus polymerase
[5] = system: PA-mutant K137L influenza virus polymerase
[6] = system: PA-mutant G81T influenza virus polymerase
[7] = system: PA-mutant R124Q influenza virus polymerase
[8] = system: PA-mutant L42T influenza virus polymerase
[9] = system: PA-mutant T20A influenza virus polymerase
[10] = system: PA-I38T mutant influenza virus polymerase

Row | Compound | Fold increase in EC50 compared to wild-type [1] | Fold increase in EC50 compared to wild-type [2] [fold] | Fold increase in EC50 compared to wild-type [3] [fold] | Fold increase in EC50 compared to wild-type [4] [fold] | Fold increase in EC50 compared to wild-type [5] [fold] | Fold increase in EC50 compared to wild-type [6] [fold] | Fold increase in EC50 compared to wild-type [7] [fold] | Fold increase in EC50 compared to wild-type [8] [fold] | Fold increase in EC50 compared to wild-type [9] [fold] | Fold increase in EC50 compared to wild-type [10] [fold]
1 | O=C1c2c(ccc(O)c2O)CN1Cc1ccc(O)cc1 [Compound 17, 2-(4-hydroxybenzyl)-6,7-dihydroxy-isoindolin-1-one] | 4 fold and 3.8 fold | 4.9 | 6.1 | 4.2 | 4.5 | 6.1 | 5.0 | 2.5 |  | 
2 | NC(=O)c1ncn([C@@H]2O[C@H](CO)[C@@H](O)[C@H]2O)n1 [Ribavirin, ribavirin] | 1.1 fold | 0.8 | 1.0 | 1.2 | 1.3 | 0.9 | 1.1 | 0.9 | 1.0 | 
3 | baloxavir acid [BXA] | 0.2 fold | 0.2 | 0.7 | 0.7 |  | 0.2 | 0.5 | 1.1 | 0.3 | 65
